Publication PMC12040169 (PLOS Biology, 2025)

assay: in vitro; conditions: human, hela cells, % viability

Row | SMILES | viability at 28.5 h, 10 µM [%]
1 | N#CCCN(C(=O)NCc1ccc(Cl)c(Cl)c1)C1CCCCC1 [CBK156349] | 85.5
2 | COc1ccc(CC(=O)N2CCC(c3cccc(Cc4ccccc4C)n3)CC2)cc1 [CBK286232] | 93.5
3 | CCN(Cc1ccc(C#N)cc1F)C(=O)NC(C)c1nncn1C (stereo not drawn) [CBK305888] | 119
4 | Cc1ccnc(Nc2nc3ccccc3o2)n1 [CBK022772] | 87.5
5 | COc1ccc2[nH]cc(CCNC(=O)c3ccc(-c4cccc(N(C)C)c4)nc3N(C)C(C)=O)c2c1 [CBK076589] | 101
6 | CC(=O)Nc1nc(NC(C)=O)n(-c2ccccc2)n1 [CBK287938] | 86
7 | Cc1cccc(C2(O)CCN(C(=O)c3cc(C(C)C)nn3C)CC2)c1 [CBK282163] | 87.5
8 | Cc1sc2ncn(CC(=O)NCCc3c[nH]cn3)c(=O)c2c1C [CBK304685] | 99.3
9 | O=C(CC(CN1CCN(c2ccccn2)CC1)C(=O)O)NC1CCCCC1 (stereo not drawn) [CBK286812] | 87.7
10 | CCNC(=O)N1CC[C@H]2CC(=O)N(Cc3cccnc3)CC[C@H]2C1 [CBK288792] | 85.6
11 | O=C(O)CC1SC(=O)N(c2ccccc2)C1=O (stereo not drawn) [CBK287085] | 78.8
12 | CC(C)c1ccc(N2C(=O)SC(c3ccccc3)C2=O)cc1 (stereo not drawn) [CBK113687] | 91.1
13 | CC(C)c1ccc(S(=O)(=O)n2ccn(-c3cccc(C(F)(F)F)c3)c2=O)cc1 [CBK106587] | 93.8
14 | Cc1nn(C)c(C)c1CN(C(=O)C(C)Oc1cccc(F)c1)C1CC1 (stereo not drawn) [CBK281479] | 93.7
15 | Cc1ccc(C(=O)N2CN(C(=O)CN(C)CCN(C)C)CC2(C)C)cc1 [CBK091460C] | 115
16 | COc1ccc(OC)c(NC(=O)CN2CCC(C(N)=O)(N3CCCCC3)CC2)c1 [CBK268462] | 98.2
17 | O=C(O)C[C@]1(C(=O)NC2CCCCCC2)CC(/C=C/c2ccccc2)=NO1 [CBK286732] | 75.9
18 | Cc1onc(-c2c(Cl)cccc2Cl)c1C(=O)N(C)C [CBK160437] | 97
19 | CCc1c(C)nc2c(C(=O)NCCOC)cnn2c1C [CBK162143] | 93.9
20 | CC1(C)Cc2c(cnn2-c2ccc(F)cc2)C(NS(C)(=O)=O)C1 (stereo not drawn) [CBK307403] | 92.3
21 | O=C(Nc1ccc(S(=O)(=O)N2CCCC2)cc1)c1ccc(COc2ccc3c(c2)CCC3)o1 [CBK265847] | 89.1

Row | SMILES | viability at 28.5 h, 10 µM [%]
22 | O=C(CCN1CCN2CCCCC2C1)N1c2ccccc2Sc2ccc(Cl)cc21 (stereo not drawn) [CBK278257F] | 86.3
23 | O=C(OCc1ccccc1)N1CCC(C2OCc3ccc(-c4ccc(Cl)c(Cl)c4)cc3O2)CC1 (stereo not drawn) [CBK144646] | 109
24 | Cc1noc(C)c1C(=O)N1CCCC(c2nc(C)n3ccsc23)C1 (stereo not drawn) [CBK285211] | 103
25 | CC(C)c1cc(C(=O)N[C@@H]2CCOC[C@H]2Oc2ccc(CO)cc2)on1 [CBK306554] | 101
26 | CC(Cc1ccccn1)NC(=O)Cc1ccc2c(c1)CCCO2 (stereo not drawn) [CBK282115] | 95
27 | Cc1cc(C(F)(F)F)nn1CCC(=O)Nc1cnn(C)c1C(=O)O [CBK286817] | 98.4
28 | Cc1nc(C)c(C(=O)NC(Cc2ccsc2)c2nccs2)s1 (stereo not drawn) [CBK282822] | 82.3
29 | Cc1cc2oc(C(=O)Nc3sc4c(c3C#N)CCCC4)c(C)c2cc1C [CBK266301] | 103
30 | O=C(/C=C/c1cn(-c2ccccc2)nc1-c1cc2ccccc2oc1=O)NCc1ccccc1 [CBK266530] | 100
31 | CCC(=O)Nc1ccc(-c2csc(N3CCCC(C)C3)n2)cc1 (stereo not drawn) [CBK306478] | 83.3
32 | CCOC(=O)CC1SC(NS(=O)(=O)c2ccc(Br)cc2)=NC1=O (stereo not drawn) [CBK014126] | 93.5
33 | c1cncc(C(N2CCOCC2)N2CCOCC2)c1 [CBK260999] | 94.5
34 | c1ccc2c(Sc3nccnc3N3CCCC3)cccc2c1 [CBK089527] | 89.2
35 | CN1CCN(Cc2oc(CO)cc(=O)c2O)CC1 [CBK288394] | 89.6
36 | Cc1nc(CCCn2cnc3nccnc3c2=O)sc1C [CBK306962] | 103
37 | Cc1cc(C)c2nc(-c3ccccn3)cc(C(=O)Nc3ccc(S(=O)(=O)Nc4onc(C)c4C)cc3)c2c1 [CBK267775] | 92.9
38 | Cn1c(SCC(=O)N2CCN(c3ccccc3)CC2)nc2cc(Cl)ccc21 [CBK298295] | 99.7
39 | O=C(Nc1ccc(Br)c2cccnc12)c1ccc(Cn2cc(Cl)cn2)o1 [CBK265893] | 88.2
40 | CC(=O)N1CCN(c2cc(-c3noc([C@@H]4CCCN4C4CCOCC4)n3)ccn2)CC1 [CBK288879] | 88
41 | O=C(c1cc(-c2ccc(Cl)cc2)[nH]n1)N1CCN(c2ncccn2)CC1 [CBK116551] | 93
42 | COc1cc(CNC(=O)C(C)SCc2ccccc2)ccn1 (stereo not drawn) [CBK298331] | 90.8

Row | SMILES | viability at 28.5 h, 10 µM [%]
43 | CC(NC(=O)c1nn(-c2ccc(F)cc2)c2c1CCCC2)c1ccc2c(c1)OCCO2 (stereo not drawn) [CBK296682] | 103
44 | O=C1CCC(=O)N1CCOc1nccnc1N1CCN(Cc2ccc(Cl)c(Cl)c2)CC1 [CBK084287] | 92.9
45 | O=C(Nc1cc(Br)ccc1O)c1cnn2c(C(F)(F)F)cc(-c3cccs3)nc12 [CBK268190] | 96
46 | CS(=O)(=O)c1sc(C(=O)O)c2c1C=CCC2 [CBK005513] | 87.3
47 | CN(Cc1ccccc1)c1ncc(-c2ccc(N3CCOCC3)cc2)n2ccnc12 [CBK091275] | 99.7
48 | Nc1cccc(-c2cc(Nc3ccc(C4CCCCC4)cc3)ncn2)c1 [CBK091191] | 88.8
49 | COC1C(O)C(CO)OC1n1cc(F)c(Oc2c(C)cc(C)cc2C)nc1=O (stereo not drawn) [CBK201279] | 98.2
50 | O=C(O)C(CCO)Sc1nnc(Nc2ccc(Oc3ccccc3)cc2)s1 (stereo not drawn) [CBK296631] | 85.7
51 | CC(Oc1ccc(Br)cc1)C(=O)Nc1nc2c(s1)CCC2 (stereo not drawn) [CBK296723] | 84.8
52 | Cc1noc(C)c1C(=O)N1CCN(Cc2ccccc2)CC1 [CBK200173] | 90.9
53 | CCN(CC)CCn1c(NC(=O)CCC2CCNC2)nc2ccccc21 (stereo not drawn) [CBK304693] | 92.3
54 | O=C(c1ccccc1Cl)N1CCN(c2ccc([N+](=O)[O-])c(NCc3cccnc3)c2)CC1 [CBK265866] | 108
55 | Cc1nc(C2(O)CCCN(C3CCCC3)CC2)sc1COc1ccc(F)c(F)c1 (stereo not drawn) [CBK286259] | 89.7
56 | CCS(=O)(=O)Nc1ccc(C(=O)N2CCN(c3ccccc3)CC2)cc1 [CBK304345] | 112
57 | COc1cc(NC(=O)c2c(C)[nH]c(=O)[nH]c2=S)cc(C(F)(F)F)c1 [CBK115495] | 92.3
58 | Cc1ccccc1CSCCNC(=O)Nc1ccc(Cl)cc1 [CBK268669] | 101
59 | CCN(CC)C(=O)CN(CCc1ccc(OC)c(OC)c1)C(=O)NCCCSC [CBK158725] | 94.8
60 | CCN(CC)C(=O)C1CCCN(C(=O)NC(c2ccccc2)c2ccccc2)C1 (stereo not drawn) [CBK156125] | 106
61 | CCC(Sc1ccc2nnc(-c3cccnc3)n2n1)C(=O)O (stereo not drawn) [CBK287623] | 110
62 | Cc1nc2c(c(=O)n1C)CN(Cc1cc(=O)n3cccc(O)c3n1)C2 [CBK306991] | 78.8
63 | N#CCCn1cc(C(=O)N2CCOCC2)c(-c2cccc(Cl)c2)n1 [CBK306208] | 88.2
